Measured values published in patent US4556677A, “Alkane and alkene derivatives and their use” (Farmos Group Ltd., priority 1981, dated 1985).

Experiments:
immature mouse uterus [1] = assay: antiestrogenic effect in vivo, inhibition of oestradiol induced uterus weight increase in immature mice
Protocol: (§1) The estrogen-antiestrogen (progesterone-antiprogesterone) effect in vivo was determined as follows:
The antiestrogenic effects of the molecules were determined in a similar manner in immature mice. In this case, the ability of the molecules to inhibit estrogen-induced uterus weight increase was investigated, too.
The compound 1 at a dose of 0.5 mg/kg caused a 50% inhibition of oestradiol induced effect on mouse uterus.
(§2) In Table 2 a summary of the oestrogenic/antioestrogenic and progestanic/antiprogestanic effect of some of the compounds can be seen. The percentages refer to increase/reduction in mice uterus weights.

immature mouse uterus [2] = assay: estrogenic effect in vivo, immature mouse uterus weight
Protocol: as §1
The estrogenic properties of the molecules were determined by administering the molecules, suspended in sesam oil, subcutaneously to 21 days old immature mice on three consecutive days. The mice were killed on the fourth day and the uterus was weighed. Estradiol (positive control) increases the weight of the uterus. The weight correlates with the estrogenic effect of the molecules.
The estrogenic effect of compounds of the invention as measured by their ability to increase the weight of immature mouse uterus was usually far less than that of oestradiol, the positive control. […] At the dose of 0.5 mg/kg the oestrogenic effect of compound 1, 7 and 8 were respectively 20%, 75% and 83% less and at the dose of 5 mg/kg the oestrogenic effect of compound 2 was 60% less than that of oestradiol 0.05 mg/kg.
as §2

mouse uterus [3] = assay: progestanic effect in vivo, reduction of mouse uterus weight; settings: given alone
Protocol: as §1
(§3) The (anti)progestanic effects were studied in a similar manners as the estrogenic ones. Medroxyprogesterone acetate, which decreases uterus weight, was used as reference.
(§4) The progestanic and antiprogestanic effects of compounds were measured as described earlier. The compound No. 2 reduced the weight of mouse uterus by 49% compared to control while medroxyprogesterone acetate gave 40% reduction.
as §2

mouse uterus [4] = assay: antiprogestanic/synergistic effect in vivo, given together with medroxyprogesterone acetate, mouse uterus weight
Protocol: as §1, §3, §4, §2

[5] = tested on: MCF-7 human mammary adenocarcinoma cell line; assay: anti-tumour effect in vitro, growth of MCF-7 cells (bioluminescence ATP assay); type: cell-based; settings: Homo sapiens, MCF7; MCF-7, Table 3; read-out: Antitumour effect (IC50 = concentration of compound where 50% inhibition of cell growth could be seen)
Protocol: The anti-tumour effect was studied in vitro as follows:
The growth of MCF-7 cell line (human mammary adenocarcinoma, known to be estrogen-dependent) was evaluated in the presence or absence of estradiol, medroxyprogesterone acetate or the molecules to be investigated. Combinations of molecule plus estradiol and molecule plus medroxyprogesterone were also studied. The amount of living cells after 4 h, 24 h and 48 h incubations were determined by bioluminescence assay (intracellular ATP determination).
The antitumour effects of the compounds had been tested in vitro against MCF-7 human mammary adenocarcinoma cell line and in vivo against DMBA-induced rat mammary adenocarcinomas and transplantable mammary adenocarcinoma.
In table 3 the antitumour effects of certain compounds can be seen.

mouse uterus [6] = assay: antiprogestanic/synergistic effect in vivo, given together with medroxyprogesterone acetate, mouse uterus weight; settings: vs 20% for the acetate alone
estrogen receptors = target: T1, estrogen receptors (Rattus norvegicus, UniProt P06211); assay: affinity to estrogen receptors, competition with 3H-labelled 17-β-estradiol (dextran-charcoal method); type: binding; settings: rat uterus cytosol, Table 1; read-out: Affinity (concentration of compound where 50% competition (inhibition) with 3H-estradiol occurred)
T1 construct: rat uterus cytosol preparation; from tissue; host or cells: rat uterus cytosol
T1 sequence (P06211 1-600): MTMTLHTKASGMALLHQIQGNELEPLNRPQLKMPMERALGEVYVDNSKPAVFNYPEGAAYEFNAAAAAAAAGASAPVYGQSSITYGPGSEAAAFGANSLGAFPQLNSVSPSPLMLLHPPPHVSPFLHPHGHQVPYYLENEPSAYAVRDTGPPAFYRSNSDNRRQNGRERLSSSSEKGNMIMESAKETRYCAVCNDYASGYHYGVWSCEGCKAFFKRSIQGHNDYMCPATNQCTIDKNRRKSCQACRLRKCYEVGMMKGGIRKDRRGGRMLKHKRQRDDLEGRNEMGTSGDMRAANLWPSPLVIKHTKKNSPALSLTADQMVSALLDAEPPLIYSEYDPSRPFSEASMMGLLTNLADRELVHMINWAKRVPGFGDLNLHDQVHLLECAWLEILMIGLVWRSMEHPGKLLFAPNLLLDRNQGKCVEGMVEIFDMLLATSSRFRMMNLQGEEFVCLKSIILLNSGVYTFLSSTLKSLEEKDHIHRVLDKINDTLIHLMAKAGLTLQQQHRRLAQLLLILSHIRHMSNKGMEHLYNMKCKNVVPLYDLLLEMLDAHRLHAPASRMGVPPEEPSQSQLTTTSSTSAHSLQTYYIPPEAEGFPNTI
Protocol: The affinity to estrogen receptors was determined by the ability of the molecules to compete with ^3 H-labelled 17-β-estradiol in rat uterus cytosol preparation. After incubation, receptor-bound and receptor-unbound ligands were separated by a known dextrancharcoal method. (Korenman, S. G.: "Comparative binding affinity of estrogens and its relation to estrogenic potency". Steroids 13: 163-177, 1969). […] The results in table 1 are shown as follows: | with ^3 H--estradiol occurred

- IC50 [5]: 1000 to 5000 nM
- IC50 (estrogen receptors): 100 to 1000 nM
SMILES: CC/C(=C(\c1ccccc1)c1ccc(OCCN(CC)CC)cc1)C1CCCC1 [Compound 8, (Z)-2-cyclopentyl-1-[p-(N,N-diethyl-2-aminoethoxy)phenyl]-1-phenyl-1-butene]
- inhibition of oestradiol induced effect on mouse uterus (immature mouse uterus [1]; 5 mg/kg): 30%
- Given with oestradiol: reduction in mice uterus weight (immature mouse uterus [1]; Table 2, 5 mg/kg, with oestradiol 0.05 mg/kg): 32%
- oestrogenic effect, % less than that of oestradiol 0.05 mg/kg (immature mouse uterus [2]; 0.5 mg/kg, s.c., immature mice): 83%
- estrogenic effect (in words) (immature mouse uterus [2]; immature mouse uterus weight): dose dependent
- estrogenic effect at increased doses (in words) (immature mouse uterus [2]; increased doses (above 0.05 mg/kg), given alone): the estrogenic effect became evident
- progestanic effect (in words) (mouse uterus [3]; 0.05 mg/kg): could be considered to be a progestanic one
- decrease in uterus weight (mouse uterus [3]; 0.05 mg/kg (lowest dose)): 12%
- Given with medroxyprogesterone acetate: reduction in mice uterus weight (mouse uterus [4]; Table 2, 0.5 mg/kg, with medroxyprogesterone acetate 0.06 mg/kg): 16%
- effect with medroxyprogesterone acetate at higher doses (in words) (mouse uterus [4]; higher doses, together with medroxyprogesterone acetate): an antiprogestanic effect was achieved
- antiprogestanic / synergistic effect with medroxyprogesterone acetate (in words) (mouse uterus [4]; together with medroxyprogesterone acetate): neither synergism nor inhibition of medroxyprogesterone acetate was seen
- decrease in the weight of mouse uterus together with medroxyprogesterone acetate (mouse uterus [6]): 16%
